Data: ChEMBL document CHEMBL5236566, “Design and synthesis of novel pipernonaline derivatives as anti-austerity agents against human pancreatic cancer PANC-1 cells” (Bioorg Med Chem, 2022)
Calls of active or inactive are those of the source. The calls are words filed in the database; no cut-off is given here.

Legend:
PANC-1 [1] = assay: Cytotoxicity against human PANC-1 cells assessed as reduction in cell viability incubated for 24 hrs in nutrient-rich Dulbecco's modified Eagle's medium by WST-8 assay; format: functional, cell-based; details: PANC-1, 24 h
PANC-1 [2] = assay: Preferential cytotoxicity against human PANC-1 cells assessed as reduction in cell viability incubated for 24 hrs in nutrient-deprived medium by WST-8 assay; format: functional
[3] = Selectivity index, ratio of IC50 for cytotoxicity against human PANC-1 cells in nutrient-rich Dulbecco's modified Eagle's medium to PC50 for preferential cytotoxicity against human PANC-1 cells in nutrient-deprived medium; format: toxicity, cell-based
PANC-1 [4] = assay: Potency index, ratio of pipernonaline PC50 to test compound PC50 for Preferential cytotoxicity against human PANC-1 cells assessed as reduction in cell viability incubated for 24 hrs in nutrient-deprived medium by WST-8 assay; format: functional
[5] = biological target: RAC-alpha serine/threonine-protein kinase (Homo sapiens) (UniProt P31749); assay: Inhibition of Akt activation in human PANC-1 cells assessed as decrease in Akt phosphorylation at 5 uM incubated for 6 hrs in nutrient-deprived medium by Western blot analysis; format: cell-based
[6] = biological target: RAC-alpha serine/threonine-protein kinase (Homo sapiens) (UniProt P31749); assay: Inhibition of Akt activation in human PANC-1 cells assessed as effect on total Akt level at 1.25 to 5 uM incubated for 6 hrs in nutrient-deprived medium by Western blot analysis; format: cell-based; details: dose 1.25-5 µM
[7] = biological target: RAC-alpha serine/threonine-protein kinase (Homo sapiens) (UniProt P31749); assay: Inhibition of Akt activation in human PANC-1 cells assessed as effect on mTOR level at 1.25 to 5 uM incubated for 6 hrs in nutrient-deprived medium by Western blot analysis; format: cell-based; details: dose 1.25-5 µM
[8] = biological target: RAC-alpha serine/threonine-protein kinase (Homo sapiens) (UniProt P31749); assay: Inhibition of Akt activation in human PANC-1 cells assessed as effect on Atg3 level at 1.25 to 5 uM incubated for 6 hrs in nutrient-deprived medium by Western blot analysis; format: cell-based; details: dose 1.25-5 µM
[9] = biological target: RAC-alpha serine/threonine-protein kinase (Homo sapiens) (UniProt P31749); assay: Inhibition of Akt activation in human PANC-1 cells assessed as effect on Atg7 level at 1.25 to 5 uM incubated for 6 hrs in nutrient-deprived medium by Western blot analysis; format: cell-based; details: dose 1.25-5 µM
[10] = biological target: RAC-alpha serine/threonine-protein kinase (Homo sapiens) (UniProt P31749); assay: Inhibition of Akt activation in human PANC-1 cells assessed as upregulation of LC3-II level at 1.25 to 5 uM incubated for 6 hrs in nutrient-deprived medium by Western blot analysis; format: cell-based; details: dose 1.25-5 µM
PANC-1 [11] = assay: Inhibition of cell migration in human PANC-1 cells assessed as reduction in migration velocity at 20 uM measured every 15 min for 24 hrs in nutrient-rich Dulbecco's modified Eagle's medium by quantitative real-time cell migration assay; format: functional
PANC-1 [12] = assay: Inhibition of cell migration in human PANC-1 cells assessed as reduction in cell migration at 20 uM measured at 12 hrs in nutrient-rich Dulbecco's modified Eagle's medium by quantitative real-time cell migration assay relative to control; format: functional
PANC-1 [13] = assay: Inhibition of cell migration in human PANC-1 cells assessed as reduction in cell migration at 20 uM measured at 18 hrs in nutrient-rich Dulbecco's modified Eagle's medium by quantitative real-time cell migration assay relative to control; format: functional

RAC-alpha serine/threonine-protein kinase (Homo sapiens), sequence (P31749 whole entry): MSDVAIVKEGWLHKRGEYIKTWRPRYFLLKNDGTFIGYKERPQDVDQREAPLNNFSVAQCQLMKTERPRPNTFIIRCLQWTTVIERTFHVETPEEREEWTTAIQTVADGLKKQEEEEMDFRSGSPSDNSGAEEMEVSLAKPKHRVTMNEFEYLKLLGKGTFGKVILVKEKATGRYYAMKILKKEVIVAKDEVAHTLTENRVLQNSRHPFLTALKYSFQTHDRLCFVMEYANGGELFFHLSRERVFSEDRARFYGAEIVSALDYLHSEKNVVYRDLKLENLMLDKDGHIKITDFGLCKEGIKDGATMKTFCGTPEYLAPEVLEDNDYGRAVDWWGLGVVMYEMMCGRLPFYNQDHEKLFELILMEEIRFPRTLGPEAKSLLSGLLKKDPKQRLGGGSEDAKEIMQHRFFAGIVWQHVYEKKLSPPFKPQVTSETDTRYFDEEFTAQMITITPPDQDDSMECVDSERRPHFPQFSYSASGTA

Row | Compound | IC50 (PANC-1 [1]) [µM] | PC50 (PANC-1 [2]) [µM] | selectivity ratio [3] | also measured
1 | Cc1ccc(CCCCCCCCC(=O)N2CCCCC2)cc1 | > 100 | 4.1 | > 24.4 | –
2 | O=C(/C=C/CCCC/C=C/c1ccc2c(c1)OCO2)N1CCCCC1 [PIPERNONALINE] | 54.9 | 7.2 | 7.6 | –
3 | N#Cc1ccc(CCCCCCCCC(=O)N2CCCCC2)cc1 | > 100 | 4 | > 25 | –
4 | O=C(CCCCCCCc1ccccc1)N1CCCCC1 | > 100 | 6.9 | > 14.5 | –
5 | O=C(CCCCCCCCc1ccc(Cl)cc1)N1CCCCC1 | 65.5 | 3.3 | 19.8 | –
6 | O=C(/C=C/CCCCCCc1ccccc1)NCc1ccccc1 | > 100 | 6.1 | > 16.4 | –
7 | O=C(CCCCCCCCc1ccccc1F)N1CCCCC1 | 98.9 | 4.6 | 21.5 | –
8 | O=C(/C=C/CCCCCCc1ccccc1)N[C@H]1CC[C@H](O)CC1 | > 100 | 52.1 | > 1.9 | –
9 | O=C(CCCCCCCCc1cccc(Cl)c1)N1CCCCC1 | > 100 | 4.3 | > 23.3 | –
10 | O=C(/C=C/CCCCCCc1ccccc1)Nc1ccccc1 | > 100 | 8.8 | > 11.4 | –
11 | O=C(CCCCCCCCCc1ccccc1)N1CCCCC1 | > 100 | 6.5 | > 15.4 | –
12 | O=C(/C=C/CCCCC#Cc1ccccc1)N1CCCCC1 | > 100 | 2.2 | > 45.5 | –
13 | O=C(CCCCCCCCc1ccc(O)cc1)N1CCCCC1 | > 100 | 7.8 | > 12.8 | –
14 | O=C(CCCCCC/C=C/c1ccccc1)N1CCCCC1 | > 100 | 9.6 | 7.4 | –
15 | O=C(CCCCCCCCCCc1ccccc1)N1CCCCC1 | > 100 | 6.6 | > 15.2 | –
16 | O=C(CCCCCCCCc1ccccc1)N1CCCCC1 | > 100 | 1.08 | > 90.9 | Ratio (PANC-1 [4]): 7; inhibition [5]: Active; inhibition [6]: inactive; inhibition [7]: inactive; inhibition [8]: inactive; inhibition [9]: inactive; inhibition [10]: Active; Activity (PANC-1 [11]): 10.6 um2/s; inhibition at 20 µM (PANC-1 [12]): 50%; inhibition at 20 µM (PANC-1 [13]): 78%
17 | O=C(CCCCCCCCc1cccc(F)c1)N1CCCCC1 | > 100 | 6.6 | > 15.2 | –

Row | Compound | IC50 (PANC-1 [1]) [µM] | PC50 (PANC-1 [2]) [µM] | selectivity ratio [3] | also measured
18 | O=C(/C=C/CCCCCCc1ccccc1)N1CCCCC1 | > 100 | 1.7 | > 58.8 | –
19 | O=C(/C=C/CCCCCCc1ccccc1)N1CCC(O)CC1 | > 100 | 9.4 | > 10.6 | –
20 | O=C(CCCCCCCCc1ccccc1Cl)N1CCCCC1 | > 100 | 3.6 | > 27.8 | –
21 | Nc1ccn([C@@H]2O[C@H](CO)[C@@H](O)C2(F)F)c(=O)n1 [GEMCITABINE] | > 100 | >100 | – | –
22 | O=C(/C=C/CCCCCCc1ccccc1)N1CCCC1 | > 100 | 4.1 | > 24.4 | –
23 | O=C(CCCCCCCCc1ccc2ccccc2c1)N1CCCCC1 | 87 | 6 | 14.5 | –
24 | O=C(CCCCCCCCc1ccc(F)cc1)N1CCCCC1 | 99.8 | 3.5 | 28.5 | –
25 | COc1ccc(CCCCCCCCC(=O)N2CCCCC2)cc1 | 89.3 | 3.8 | 23.5 | –
26 | O=C(/C=C/CCCCCCc1ccccc1)N1CCOCC1 | > 100 | 12.5 | > 8 | –
27 | S=C(CCCCCCCCc1ccccc1)N1CCCCC1 | > 100 | 2.2 | > 45.5 | –
28 | O=C(CCCCCCCCc1ccc(C(F)(F)F)cc1)N1CCCCC1 | 54 | 3.2 | 16.9 | –
29 | O=C(/C=C/CCCCCCc1ccccc1)N1CCCCCC1 | > 100 | 3.1 | > 32.3 | –
30 | O=C(/C=C\CCCCCCc1ccccc1)N1CCCCC1 | > 100 | 2.3 | > 43.5 | –
31 | O=C(CCCCCCCCC1CCCCC1)N1CCCCC1 | > 100 | 12 | > 8.3 | –
32 | O=C(CCCOCCCCc1ccccc1)N1CCCCC1 | > 100 | 26.6 | > 3.8 | –
33 | O=C(CCCCCCc1ccccc1)N1CCCCC1 | > 100 | 7.1 | > 14.1 | –
